Test results from article PMC10854695, “Using Flavonoid Substitution Status to Predict Anticancer Effects in Human Melanoma Cancers: An In Vitro Study” (Cancers, 2024).

Assays:
C32 melanoma cells [1] = assay: MTT cell viability assay, C32; conditions: Homo sapiens, read-out: IC50, cytotoxic activity, MTT test;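 note: MTT added for 2 h, cells lysed in DMSO, absorbance read at 570 nm, compound vehicle kept at or below 0.1% DMSO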
Procedure: (§1) The MTT colorimetric assay was performed as a preliminary evaluation of the cytotoxicity of the selected flavonoids according to the method described and validated by Strawa et al. [21]. Briefly, melanoma cells and fibroblasts were seeded in 96-well microplates at a density of 1 × 10^4 cells per well. Fibroblasts were used as a control cell line in order to assess the selectivity of the compounds. […] Subsequently, the cells were washed with PBS, incubated with MTT solution for 2 h, and lysed with dimethyl sulfoxide (DMSO) supplemented with 1% (v/v) Sorensen’s glycine buffer. The absorbance was measured using a microplate reader (EPOCH 2, BioTek, Winooski, VT, USA) at a wavelength of 570 nm. The compounds were used at a final DMSO concentration of no more than 0.1% (v/v) in each well. The results were generated from at least three independent experiments. […] The IC50 values were calculated with GraphPad Prism 9 software (GraphPad Software, San Diego, CA, USA).

A375 melanoma cells [2] = assay: MTT cell viability assay, A375; conditions: Homo sapiens;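 note: Read-out is formazan absorbance at 570 nm after 2 h with MTT, with compounds in at most 0.1% v/v DMSO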
Procedure: as §1

C32 melanoma cells [3] = assay: Neutral red uptake (NRU) assay, C32; conditions: Homo sapiens
Procedure: (§2) The NRU (neutral red uptake) was conducted as previously described by Szoka and co-workers, with some modifications [22]. Briefly, melanoma cells and fibroblasts were seeded in microplates at the density of 1 × 10^4 cells per well and allowed to adhere for 24 h. […] After treatment, the culture medium was replaced with a neutral red solution (40 µg/mL). An additional 2 h of incubation was performed. The neutral red solution was then removed and the neutral red accumulated in the cells was dissolved in 50% EtOH with 1% of the glacial acetic acid. The absorbance was estimated at 540 nm and IC50 values were calculated using GraphPad Prism software (GraphPad Software, San Diego, CA, USA).

A375 melanoma cells [4] = assay: Neutral red uptake (NRU) assay, A375; conditions: Homo sapiens, read-out: IC50, cytotoxic activity, NRU assay
[5] = MTT cell viability assay, normal cells; conditions: human;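 note: fibroblasts served as non-cancer comparison line for selectivity versus melanoma cells, MTT reduction read as absorbance at 570 nm after 2 h dye exposure, compounds in ≤0.1% DMSO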
Procedure: as §1

[6] = Neutral red uptake (NRU) assay, normal cells; conditions: human
Procedure: as §2

[7] = A-375, 24 h, read-out: IC50, cytotoxic activity, MTT test, A375, 24 h
[8] = A-375, 48 h, read-out: IC50, cytotoxic activity, MTT test, A375, 48 h
[9] = A-375, 72 h, read-out: IC50, cytotoxic activity, MTT test, A375, 72 h
[10] = C32, 24 h, read-out: IC50, cytotoxic activity, NRU assay, C32, 24 h
[11] = C32, 48 h, read-out: IC50, cytotoxic activity, NRU assay, C32, 48 h
[12] = C32, 72 h, read-out: IC50, cytotoxic activity, NRU assay, C32, 72 h
[13] = human skin fibroblasts (CCD25Sk)

COc1ccc(C2CC(=O)c3c(O)cc(OC4OC(COC5OC(C)C(O)C(O)C5O)C(O)C(O)C4O)cc3O2)cc1O (stereo not drawn) [Compound 34, hesperetin 7-O-rutinoside]
IC50 (C32 melanoma cells [1]; C32, 24 h): > 200 µM | IC50 (C32 melanoma cells [1]; C32, 48 h): > 200 µM | IC50 (C32 melanoma cells [1]; C32, 72 h): > 200 µM | IC50 (A375 melanoma cells [2]; [7]): > 200 µM | IC50 (A375 melanoma cells [2]; [8]): > 200 µM | IC50 (A375 melanoma cells [2]; [9]): > 200 µM | IC50 (C32 melanoma cells [3]; [10]): > 200 µM | IC50 (C32 melanoma cells [3]; [11]): > 200 µM | IC50 (C32 melanoma cells [3]; [12]): > 200 µM | IC50 (A375 melanoma cells [4]; A-375, 24 h): > 200 µM | IC50 (A375 melanoma cells [4]; A-375, 48 h): > 200 µM | IC50 (A375 melanoma cells [4]; A-375, 72 h): > 200 µM | IC50 at 24 h [5, 13]: > 200 µM | IC50 at 48 h [5, 13]: > 200 µM | IC50 at 72 h [5, 13]: > 200 µM | IC50 at 24 h [6, 13]: > 200 µM | IC50 at 48 h [6, 13]: > 200 µM | IC50 at 72 h [6, 13]: > 200 µM

O=C(O)C1OC(Oc2cc(O)c3c(=O)cc(-c4ccc(O)cc4)oc3c2)C(O)C(O)C1O (stereo not drawn) [Compound 4, apigenin 7-O-glucuronide]
IC50 (C32 melanoma cells [1]; C32, 24 h): > 200 µM | IC50 (C32 melanoma cells [1]; C32, 48 h): > 200 µM | IC50 (C32 melanoma cells [1]; C32, 72 h): > 200 µM | IC50 (A375 melanoma cells [2]; [7]): > 200 µM | IC50 (A375 melanoma cells [2]; [8]): > 200 µM | IC50 (A375 melanoma cells [2]; [9]): > 200 µM | IC50 (C32 melanoma cells [3]; [10]): > 200 µM | IC50 (C32 melanoma cells [3]; [11]): > 200 µM | IC50 (C32 melanoma cells [3]; [12]): > 200 µM | IC50 (A375 melanoma cells [4]; A-375, 24 h): > 200 µM | IC50 (A375 melanoma cells [4]; A-375, 48 h): > 200 µM | IC50 (A375 melanoma cells [4]; A-375, 72 h): > 200 µM | IC50 at 24 h [5, 13]: > 200 µM | IC50 at 48 h [5, 13]: > 200 µM | IC50 at 72 h [5, 13]: > 200 µM | IC50 at 24 h [6, 13]: > 200 µM | IC50 at 48 h [6, 13]: > 200 µM | IC50 at 72 h [6, 13]: > 200 µM

C[C@@H]1O[C@@H](OC[C@H]2O[C@@H](Oc3c(-c4ccc(O)c(O)c4)oc4cc(O)cc(O)c4c3=O)[C@H](O)[C@@H](O)[C@@H]2O)[C@H](O)[C@H](O)[C@H]1O [Compound 28, quercetin 3-O-rutinoside]
IC50 (C32 melanoma cells [1]; C32, 24 h): > 200 µM | IC50 (C32 melanoma cells [1]; C32, 48 h): > 200 µM | IC50 (C32 melanoma cells [1]; C32, 72 h): > 200 µM | IC50 (A375 melanoma cells [2]; [7]): > 200 µM | IC50 (A375 melanoma cells [2]; [8]): 57 ± 3.1 µM | IC50 (A375 melanoma cells [2]; [9]): 57.8 ± 4.8 µM | IC50 (C32 melanoma cells [3]; [10]): > 200 µM | IC50 (C32 melanoma cells [3]; [11]): > 200 µM | IC50 (C32 melanoma cells [3]; [12]): > 200 µM | IC50 (A375 melanoma cells [4]; A-375, 24 h): > 200 µM | IC50 (A375 melanoma cells [4]; A-375, 48 h): > 200 µM | IC50 (A375 melanoma cells [4]; A-375, 72 h): > 200 µM | IC50 at 24 h [5, 13]: > 200 µM | IC50 at 48 h [5, 13]: > 200 µM | IC50 at 72 h [5, 13]: > 200 µM | IC50 at 24 h [6, 13]: > 200 µM | IC50 at 48 h [6, 13]: > 200 µM | IC50 at 72 h [6, 13]: > 200 µM

COc1cc(-c2cc(=O)c3c(O)cc(O)cc3o2)cc(OC)c1O [Compound 31, tricin]
IC50 (C32 melanoma cells [1]; C32, 24 h): > 200 µM | IC50 (C32 melanoma cells [1]; C32, 48 h): 100 to 200 µM | IC50 (C32 melanoma cells [1]; C32, 72 h): 100 to 200 µM | IC50 (A375 melanoma cells [2]; A-375, 24 h, read-out: IC50, cytotoxic activity, MTT test): > 200 µM | IC50 (A375 melanoma cells [2]; A-375, 48 h, read-out: IC50, cytotoxic activity, MTT test): 100 to 200 µM | IC50 (A375 melanoma cells [2]; A-375, 72 h, read-out: IC50, cytotoxic activity, MTT test): 100 to 200 µM | IC50 (C32 melanoma cells [3]; C32, 24 h, read-out: IC50, cytotoxic activity, NRU assay): > 200 µM | IC50 (C32 melanoma cells [3]; C32, 48 h, read-out: IC50, cytotoxic activity, NRU assay): > 200 µM | IC50 (C32 melanoma cells [3]; C32, 72 h, read-out: IC50, cytotoxic activity, NRU assay): > 200 µM | IC50 (A375 melanoma cells [4]; A-375, 24 h): > 200 µM | IC50 (A375 melanoma cells [4]; A-375, 48 h): > 200 µM | IC50 (A375 melanoma cells [4]; A-375, 72 h): > 200 µM | IC50 at 24 h [5]: 100 to 200 µM | IC50 at 48 h [5]: 80.3 ± 6.6 µM | IC50 at 72 h [5]: 56.4 ± 4.7 µM | IC50 at 24 h [6]: > 200 µM | IC50 at 48 h [6]: > 200 µM | IC50 at 72 h [6]: > 200 µM

O=c1c(O)c(-c2cc(O)c(O)c(O)c2)oc2cc(O)ccc12 [Compound 32, robinetin]
IC50 (C32 melanoma cells [1]; C32, 24 h): > 200 µM | IC50 (C32 melanoma cells [1]; C32, 48 h): > 200 µM | IC50 (C32 melanoma cells [1]; C32, 72 h): > 200 µM | IC50 (A375 melanoma cells [2]; [7]): > 200 µM | IC50 (A375 melanoma cells [2]; [8]): > 200 µM | IC50 (A375 melanoma cells [2]; [9]): 100 to 200 µM | IC50 (C32 melanoma cells [3]; [10]): > 200 µM | IC50 (C32 melanoma cells [3]; [11]): > 200 µM | IC50 (C32 melanoma cells [3]; [12]): > 200 µM | IC50 (A375 melanoma cells [4]; A-375, 24 h): > 200 µM | IC50 (A375 melanoma cells [4]; A-375, 48 h): > 200 µM | IC50 (A375 melanoma cells [4]; A-375, 72 h): > 200 µM | IC50 at 24 h [5, 13]: > 200 µM | IC50 at 48 h [5, 13]: > 200 µM | IC50 at 72 h [5, 13]: > 200 µM | IC50 at 24 h [6, 13]: > 200 µM | IC50 at 48 h [6, 13]: > 200 µM | IC50 at 72 h [6, 13]: > 200 µM

O=c1c(-c2ccc(O)cc2)coc2cc(O)ccc12 [Compound 36, daidzein]
IC50 (C32 melanoma cells [1]; C32, 24 h): > 200 µM | IC50 (C32 melanoma cells [1]; C32, 48 h): > 200 µM | IC50 (C32 melanoma cells [1]; C32, 72 h): > 200 µM | IC50 (A375 melanoma cells [2]; [7]): > 200 µM | IC50 (A375 melanoma cells [2]; [8]): > 200 µM | IC50 (A375 melanoma cells [2]; [9]): > 200 µM | IC50 (C32 melanoma cells [3]; [10]): > 200 µM | IC50 (C32 melanoma cells [3]; [11]): > 200 µM | IC50 (C32 melanoma cells [3]; [12]): > 200 µM | IC50 (A375 melanoma cells [4]; A-375, 24 h): > 200 µM | IC50 (A375 melanoma cells [4]; A-375, 48 h): > 200 µM | IC50 (A375 melanoma cells [4]; A-375, 72 h): > 200 µM | IC50 at 24 h [5, 13]: > 200 µM | IC50 at 48 h [5, 13]: > 200 µM | IC50 at 72 h [5, 13]: > 200 µM | IC50 at 24 h [6, 13]: > 200 µM | IC50 at 48 h [6, 13]: > 200 µM | IC50 at 72 h [6, 13]: > 200 µM

O=c1c(O)c(-c2ccc(O)cc2)oc2cc(O)cc(O)c12 [Compound 18, kaempferol]
IC50 (C32 melanoma cells [1]; C32, 24 h): 100 to 200 µM | IC50 (C32 melanoma cells [1]; C32, 48 h): 100 to 200 µM | IC50 (C32 melanoma cells [1]; C32, 72 h): 58.4 ± 3.5 µM | IC50 (A375 melanoma cells [2]; [7]): 100 to 200 µM | IC50 (A375 melanoma cells [2]; [8]): 100 to 200 µM | IC50 (A375 melanoma cells [2]; [9]): 75.8 ± 5.8 µM | IC50 (C32 melanoma cells [3]; [10]): > 200 µM | IC50 (C32 melanoma cells [3]; [11]): 62.8 ± 3.5 µM | IC50 (C32 melanoma cells [3]; [12]): 34.4 ± 2.9 µM | IC50 (A375 melanoma cells [4]; A-375, 24 h): 100 to 200 µM | IC50 (A375 melanoma cells [4]; A-375, 48 h): 57.4 ± 4.6 µM | IC50 (A375 melanoma cells [4]; A-375, 72 h): 47.7 ± 3.9 µM | IC50 at 24 h [5, 13]: 100 to 200 µM | IC50 at 48 h [5, 13]: 100 to 200 µM | IC50 at 72 h [5, 13]: 55.8 ± 4.5 µM | IC50 at 24 h [6, 13]: > 200 µM | IC50 at 48 h [6, 13]: 69.8 ± 5.8 µM | IC50 at 72 h [6, 13]: 51.1 ± 3.2 µM

O=c1cc(-c2ccc(O)cc2)oc2cc(OC3OC(CO)C(O)C(O)C3O)cc(O)c12 (stereo not drawn) [Compound 3, apigenin 7-O-glucoside]
IC50 (C32 melanoma cells [1]; C32, 24 h): > 200 µM | IC50 (C32 melanoma cells [1]; C32, 48 h): > 200 µM | IC50 (C32 melanoma cells [1]; C32, 72 h): > 200 µM | IC50 (A375 melanoma cells [2]; [7]): > 200 µM | IC50 (A375 melanoma cells [2]; [8]): > 200 µM | IC50 (A375 melanoma cells [2]; [9]): > 200 µM | IC50 (C32 melanoma cells [3]; [10]): > 200 µM | IC50 (C32 melanoma cells [3]; [11]): > 200 µM | IC50 (C32 melanoma cells [3]; [12]): > 200 µM | IC50 (A375 melanoma cells [4]; A-375, 24 h): > 200 µM | IC50 (A375 melanoma cells [4]; A-375, 48 h): > 200 µM | IC50 (A375 melanoma cells [4]; A-375, 72 h): > 200 µM | IC50 at 24 h [5, 13]: > 200 µM | IC50 at 48 h [5, 13]: > 200 µM | IC50 at 72 h [5, 13]: > 200 µM | IC50 at 24 h [6, 13]: > 200 µM | IC50 at 48 h [6, 13]: > 200 µM | IC50 at 72 h [6, 13]: > 200 µM
